Laboratory results reported in the SangsterLogP compilation.

What was measured:
[1] = method code SF-AS, from DOI: 10.1016/0006-2952(75)90156-2, PMID: 235934; settings: pH 7.4
[2] = method code SF-AS, from DOI: 10.1016/0021-9673(91)80064-n
[3] = method code SF-AS, from DOI: 10.1021/jm00162a004, PMID: 3023612
[4] = not given; remark: listed apart in the source
[5] = method code SF-AS, from DOI: 10.1016/j.bmc.2007.10.035, PMID: 18029186; settings: pH 7.4
[6] = method code SF-EPR, from DOI: 10.1016/0003-9861(82)90097-2, PMID: 6284047; settings: pH 7.4
[7] = not given; remark: listed apart in the source
[8] = method code SF, from PMID: 2704; settings: pH 1.0
[9] = method code SF-HPLC, from DOI: 10.1002/jps.2600841008, PMID: 8801331
[10] = method code SF-RC, from DOI: 10.1016/s0026-895x(25)10639-1, PMID: 1170492
[11] = method code SF-AS, from DOI: 10.1016/0005-2728(86)90252-5, PMID: 3015209; settings: pH 7.2
[12] = method code SF-HPLC, from DOI: 10.1248/cpb.43.1894
[13] = method code SF-HPLC, from DOI: 10.1016/0378-5173(88)90220-7; settings: pH 7.4
[14] = method code SF-RC, from DOI: 10.1002/ps.2780300102; settings: pH 2.0
[15] = method code SF-AS, from DOI: 10.1080/09553007214550551, PMID: 4537457
[16] = method code SF-AS, from DOI: 10.2307/3577276, PMID: 2913608
[17] = not given; remark: listed apart in the source
[18] = method code SF-AS, from DOI: 10.1248/cpb.15.1705, PMID: 5583828; settings: pH 1.1
[19] = method code SF-RC, from DOI: 10.1248/cpb.38.3099, PMID: 2085895; settings: pH 7.4
[20] = not given; remark: listed apart in the source
[21] = method code SF-AS, from DOI: 10.1135/cccc19822514; settings: pH 3.5
[22] = not given; remark: listed apart in the source
[23] = method code SF-GLC, from DOI: 10.1016/0147-6513(82)90020-3, PMID: 7106034
[24] = method code SF, from DOI: 10.1002/qsar.19920110207; settings: pH 1.0
[25] = method code SF-AS, from DOI: 10.1248/cpb.21.2309, PMID: 4775970; settings: pH 3.3
[26] = method code SF-AS, from DOI: 10.1016/j.bmc.2008.07.057, PMID: 18706818; settings: pH 7.4
[27] = pH 1.0
[28] = not given; remark: listed apart in the source
[29] = not given; remark: listed apart in the source
[30] = not given; remark: listed apart in the source
[31] = method code SF-AS, from DOI: 10.1111/j.2042-7158.1980.tb13082.x, PMID: 6110743
[32] = method code SF-GLC, from DOI: 10.1007/bf00212402, PMID: 7663085
[33] = not given; remark: listed apart in the source
[34] = not given; remark: listed apart in the source
[35] = method code SF-AS, from DOI: 10.1021/jm00299a013, PMID: 5458368
[36] = not given; remark: listed apart in the source

CC(C)Oc1ccc([N+](=O)[O-])cc1
logD [1]: 2.8

C=CC(=O)NCCCN1CCOCC1
logP [2]: -0.52

O=NN(CCCl)C(=O)NC1CCCCC1O (centres undefined)
logP: 1.6

CCCCC1(C)CCC=[N+]1[O-] (centres undefined)
logP [3]: 0.04

FC1(F)C(F)(F)C(F)(F)C2(F)C(F)(F)C(F)(F)C(F)(F)C(F)(F)C2(F)C1(F)F (centres undefined)
logP [4]: 6

CC(=O)OC[C@H]1O[C@H](OCCN(C)C(=O)Cn2ccnc2[N+](=O)[O-])[C@@H](OC(C)=O)[C@@H](OC(C)=O)[C@@H]1OC(C)=O
logD [5]: -1.16

CC1(C)CCCC(C)(C)N1O
logD [6]: 1.81

CON=C(C#N)C(=O)NC(CCS(C)(=O)=O)C(=O)O (centres undefined)
logP [7]: -0.52

COC(=O)COc1ccccc1
logD [8]: 1.41

Oc1cccc2ncccc12
logD ([9]; pH 7.4): 2.13

CCOC(=O)C1=C(COCCN)NC(C)=C(C(=O)OC)C1c1ccccc1Cl (centres undefined)
logD ([9]; pH 11.0): 3.09

CC(CSCC(C)=NNC(N)=S)=NNC(N)=S
logP [10]: 0.7

Cc1cccc(C)c1NN=C(C#N)C#N
logD [11]: 2.1

COc1ccc(C(=CSC)C(=S)SC)cc1
logP [12]: 4.1

CNS(=O)(=O)c1ccc(C)cc1
logD [13]: 1.28

COc1nc(C)nc(NC(=O)NS(=O)(=O)c2ccccc2Cl)n1
logD [14]: 1.54

COc1ccc(C(C)=O)cc1
logP [15]: 1.82

N#CC(C#N)=NNc1ccc([N+](=O)[O-])cc1Cl
logD [11]: 2

CCCCOc1ccc([N+](=O)[O-])cc1
logD [1]: 3.5

COC(=O)c1ccccc1NS(=O)(=O)c1[nH]cnc1[N+](=O)[O-]
logP [16]: 1.6

CCNc1nc(Cl)nc(NC(C)CC)n1 (centres undefined)
logP [17]: 3.02

O=[N+]([O-])c1ccccc1NS(=O)(=O)c1[nH]cnc1[N+](=O)[O-]
logP [16]: 1.2

CCC1(CCC(C)C)C(=O)NC(=O)NC1=O
logD [18]: 2.07

NC(=O)Nc1ccc(CC(=O)O)cc1
logD [14]: 0.01

CNC(=S)NN=C(C)CC(C)=NNC(=S)NC
logD [19]: 2.66

O=NN(CCCl)C(=O)NC1CCCC(O)C1 (centres undefined)
logP: 1.28

C=CC(=O)NCCN1CCOCC1
logP [2]: -0.55

ClC1=C(Cl)C2(Cl)C3C4OC4C(Cl)C3C1(Cl)C2(Cl)Cl (centres undefined)
logP [20]: 5.4

O=C(O)CCc1ccccc1
logD [21]: 1.91

N#CC(C#N)=NNc1ccc(C(=O)CCl)cc1
logD ([22]; pH 3.0): 2.15

CCN(CC)C(=S)SSC(=S)N(CC)CC
logP [23]: 3.88

CNC(=S)N/N=C(C)\C(C)=N/NC(=S)NC
logD [19]: 0.67

CC(=O)c1ccc(C(=O)O)cc1
logD [24]: 1.61

Cc1ccc(C)c(C(=O)NS(=O)(=O)c2ccc(N)cc2)c1
logD [25]: 2.19

O=S1OCC2C(CO1)C1(Cl)C(Cl)=C(Cl)C2(Cl)C1(Cl)Cl (centres undefined)
logP [23]: 3.83

CON=C(C#N)C(=O)N[C@@H](CCSC)C(=O)O
logP [7]: 0.86

CC(=O)c1ccc(C)cc1
logP [15]: 2.28

CC(=O)c1cccc(C(=O)O)c1
logD [24]: 1.56

CCCC1(C(N)=O)CCC=[N+]1[O-] (centres undefined)
logD [26]: -0.68

COc1ccc(C=O)cc1C
logD [8]: 2.23

CC(Oc1cc(Cl)c(Cl)cc1Cl)C(=O)O (centres undefined)
logD [27]: 3.8

Clc1cc2c(Cl)cc(Cl)c(Cl)c2c(Cl)c1Cl
logP [28]: 6.87

CN(C(=O)NC(C)(C)c1ccccc1)c1ccccc1
logP [29]: 3.01

O=C(O)CNC(=O)c1cccc(I)c1
logP [30]: 1.44

N#CC(C#N)=NNc1cccc(O)c1
logD ([22]; pH 7.2): 1.48

CCCOc1cccc(O)c1
logP [31]: 2.59

CC(C(=O)O)c1ccccc1 (centres undefined)
logD [21]: 1.8

CN(CCO)C(=O)Cn1ccnc1[N+](=O)[O-]
logD [5]: -1.25

CNC(=S)NN=C(C)CSCC(C)=NNC(=S)NC
logP [10]: 1.4

ClC1=C(Cl)C2(Cl)C3CC=CC3C1(Cl)C2(Cl)Cl (centres undefined)
logP [32]: 5.57

OCCC(F)(F)C(F)(F)C(F)(F)C(F)(F)C(F)(F)C(F)(F)C(F)(F)C(F)(F)F
logP [33]: 6.14

Cc1nnc(NS(=O)(=O)c2ccc(N)cc2)s1
logD [25]: 0.26

[O-][N+]1=CCCC12CCCC2
logP [3]: -0.1

CNC(=O)N(C)c1nc2ccccc2s1
logP [17]: 2.38

CSC(=S)C1=C(SC)CCC1
logP [12]: 3.59

c1ccc(Nc2ccc3ccccc3c2)cc1
logP [20]: 4.38

CCC1(C)OCC(C)(C)N1[O] (centres undefined)
logD [6]: 1

CNC(=O)OCc1cccc(I)c1[N+](=O)[O-]
logP [34]: 1.64

CCSc1nnc(C(C)(C)C)c(=O)n1N
logP [29]: 2.08

Cc1ccc(S(=O)(=O)N(C)C(=O)c2ccccc2)cc1
logD [13]: 2.95

OCCC(F)(F)C(F)(F)C(F)(F)C(F)(F)C(F)(F)C(F)(F)C(F)(F)C(F)(F)C(F)(F)C(F)(F)F
logP [33]: 7.57

CNC(=O)OCc1ccc(I)cc1[N+](=O)[O-]
logP [34]: 1.67

Cc1ncc([N+](=O)[O-])n1CCCS(C)(=O)=O
logP [35]: -1

C=CCC1(CC)C(=O)NC(=O)NC1=O
logD [18]: 0.95

CCOC(=O)c1cccc(O)c1
logP [36]: 2.47

Clc1cc2c(Cl)c(Cl)c(Cl)c(Cl)c2c(Cl)c1Cl
logP [28]: 7.33

FC(F)(F)C1(F)C(F)(F)C(F)(F)C(F)(N2C(F)(F)C(F)(F)C(F)(F)C(F)(F)C2(F)F)C(F)(F)C1(F)F (centres undefined)
logP [4]: 7

CCCS(=O)(=O)CCn1c([N+](=O)[O-])cnc1C
logP [35]: 0.23

ClC1=C(Cl)C2(Cl)C3C(Cl)C(Cl)(Cl)CC3C1(Cl)C2(Cl)Cl (centres undefined)
logP [32]: 6.06

O=C(O)C(c1ccc(Cl)cc1)c1ccc(Cl)cc1
logD [27]: 4.64

CCCCCOc1cccc(O)c1
logP [31]: 3.63

O=C(O)CCc1cccc(I)c1
logP [30]: 2.68

CCCCC1(C(N)=O)CCC=[N+]1[O-] (centres undefined)
logD [26]: -0.18

CCCOC(=O)c1ccccc1Cl
logP [36]: 3.45
